Tests used:
Klebsiella oxytoca [1] = assay: Activity of Klebsiella oxytoca Beta-lactamase K1
Klebsiella pneumoniae = assay: Activity of Klebsiella pneumoniae Beta-lactamase TEM-26
Klebsiella oxytoca [2] = assay: Kcat/Km ratio of Klebsiella oxytoca Beta-lactamase K1
Escherichia coli [3] = assay: Kcat/Km ratio of Klebsiella pneumoniae Beta-lactamase TEM-26
[4] = target: Beta-lactamase TEM (Escherichia coli) (UniProt P62593); assay: Activity of Escherichia coli TEM-1 relative to Cephaloridine
[5] = target: T1, Beta-lactamase SHV-1 (Klebsiella pneumoniae) (UniProt P0AD64); assay: Activity of Klebsiella pneumoniae SHV-1 relative to Cephaloridine
T1 sequence (whole entry): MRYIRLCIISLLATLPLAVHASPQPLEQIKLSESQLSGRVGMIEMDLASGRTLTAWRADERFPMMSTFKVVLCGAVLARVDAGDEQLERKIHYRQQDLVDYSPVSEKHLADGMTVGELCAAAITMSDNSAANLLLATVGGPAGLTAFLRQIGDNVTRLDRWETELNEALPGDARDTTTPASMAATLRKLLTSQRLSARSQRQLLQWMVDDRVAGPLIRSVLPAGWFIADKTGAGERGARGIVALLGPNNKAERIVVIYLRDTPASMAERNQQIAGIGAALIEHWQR

[6] = target: Beta-lactamase CTX-M (Escherichia coli) (UniProt Q9EXV5); assay: Activity of Escherichia coli CTX-M-15 relative to Cephaloridine
Klebsiella oxytoca [7] = assay: Activity of Klebsiella oxytoca Beta-lactamase K1 relative to Cephaloridine
Escherichia coli [8] = assay: Activity of Klebsiella pneumoniae Beta-lactamase TEM-26 relative to Cephaloridine
[9] = target: Beta-lactamase (Escherichia coli) (UniProt Q53TY8); assay: Activity of Escherichia coli CMY-2 relative to Cephaloridine
[10] = target: Beta-lactamase (Pseudomonas aeruginosa (strain ATCC 15692 / PAO1 / 1C / PRS 101 / LMG12228)) (UniProt P24735); assay: Activity of Pseudomonas aeruginosa AmpC relative to Cephaloridine
[11] = target: Beta-lactamase (Enterobacter cloacae) (UniProt P05364); assay: Activity of Enterobacter cloacae AmpC relative to Cephaloridine
[12] = target: Beta-lactamase OXA-10 (Pseudomonas aeruginosa) (UniProt P14489); assay: Activity of Pseudomonas aeruginosa OXA-10 relative to Cephaloridine
[13] = target: Carbapenem-hydrolyzing beta-lactamase KPC (Klebsiella pneumoniae) (UniProt Q9F663); assay: Activity of Klebsiella pneumoniae KPC-2 relative to Cephaloridine
[14] = target: T2, Carbapenem-hydrolyzing beta-lactamase SME-3 (Serratia marcescens) (UniProt Q6PRG8); assay: Activity of Serratia marcescens SME-3 relative to Cephaloridine
T2 sequence (whole entry): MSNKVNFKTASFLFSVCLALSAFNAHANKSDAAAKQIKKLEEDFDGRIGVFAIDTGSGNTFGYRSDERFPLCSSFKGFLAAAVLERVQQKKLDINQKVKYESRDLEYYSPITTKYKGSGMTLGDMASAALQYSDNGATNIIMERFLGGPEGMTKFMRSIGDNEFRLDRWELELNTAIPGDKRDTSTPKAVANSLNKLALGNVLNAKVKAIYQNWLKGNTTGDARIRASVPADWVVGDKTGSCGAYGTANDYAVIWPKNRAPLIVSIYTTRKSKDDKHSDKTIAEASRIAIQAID

[15] = target: T3, Beta-lactamase IMP-1 (Pseudomonas aeruginosa) (UniProt Q8G9Q0); assay: Activity of Pseudomonas aeruginosa IMP-1 relative to Cephaloridine
T3 sequence (whole entry): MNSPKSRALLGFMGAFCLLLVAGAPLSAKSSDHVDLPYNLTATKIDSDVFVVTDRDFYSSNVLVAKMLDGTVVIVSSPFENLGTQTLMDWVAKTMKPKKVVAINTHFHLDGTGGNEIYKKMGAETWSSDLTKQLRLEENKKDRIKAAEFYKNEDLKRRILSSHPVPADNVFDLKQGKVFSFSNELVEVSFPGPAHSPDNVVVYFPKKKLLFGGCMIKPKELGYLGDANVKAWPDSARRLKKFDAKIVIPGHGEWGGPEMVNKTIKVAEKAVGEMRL

[16] = target: Beta-lactamase OXA-23 (Acinetobacter baumannii) (UniProt Q9L4P2); assay: Activity of Acinetobacter baumannii OXA-23 relative to Cephaloridine
[17] = target: Beta-lactamase TEM (Escherichia coli) (UniProt P62593); assay: Kcat/Km ratio of Escherichia coli TEM-1 relative to Cephaloridine
[18] = target: T1, Beta-lactamase SHV-1 (Klebsiella pneumoniae); assay: Kcat/Km ratio of Klebsiella pneumoniae SHV-1 relative to Cephaloridine
[19] = target: Beta-lactamase CTX-M (Escherichia coli) (UniProt Q9EXV5); assay: Kcat/Km ratio of Escherichia coli CTX-M-15 relative to Cephaloridine
Klebsiella oxytoca [20] = assay: Kcat/Km ratio of Klebsiella oxytoca Beta-lactamase K1 relative to Cephaloridine
Escherichia coli [21] = assay: Kcat/Km ratio of Klebsiella pneumoniae Beta-lactamase TEM-26 relative to Cephaloridine
[22] = target: Beta-lactamase (Escherichia coli) (UniProt Q53TY8); assay: Kcat/Km ratio of Escherichia coli CMY-2 relative to Cephaloridine
[23] = target: Beta-lactamase (Pseudomonas aeruginosa (strain ATCC 15692 / PAO1 / 1C / PRS 101 / LMG12228)) (UniProt P24735); assay: Kcat/Km ratio of Pseudomonas aeruginosa AmpC relative to Cephaloridine
[24] = target: Beta-lactamase (Enterobacter cloacae) (UniProt P05364); assay: Kcat/Km ratio of Enterobacter cloacae AmpC relative to Cephaloridine
[25] = target: Carbapenem-hydrolyzing beta-lactamase KPC (Klebsiella pneumoniae) (UniProt Q9F663); assay: Kcat/Km ratio of Klebsiella pneumoniae KPC-2 relative to Cephaloridine
[26] = target: T2, Carbapenem-hydrolyzing beta-lactamase SME-3 (Serratia marcescens); assay: Kcat/Km ratio of Serratia marcescens SME-3 relative to Cephaloridine
[27] = target: T3, Beta-lactamase IMP-1 (Pseudomonas aeruginosa); assay: Kcat/Km ratio of Pseudomonas aeruginosa IMP-1 relative to Cephaloridine
[28] = target: Beta-lactamase OXA-23 (Acinetobacter baumannii) (UniProt Q9L4P2); assay: Kcat/Km ratio of Acinetobacter baumannii OXA-23 relative to Cephaloridine
[29] = tested on: C[C@@H](O)[C@H]1C(=O)N2C(C(=O)O)=C(S[C@@H]3CN[C@H](CNS(N)(=O)=O)C3)[C@H](C)[C@H]12; assay: Activity of Pseudomonas aeruginosa VIM-2
[30] = tested on: C[C@@H](O)[C@H]1C(=O)N2C(C(=O)O)=C(S[C@@H]3CN[C@H](CNS(N)(=O)=O)C3)[C@H](C)[C@H]12; assay: Kcat/Km ratio of Pseudomonas aeruginosa VIM-2
[31] = target: Beta-lactamase OXA-10 (Pseudomonas aeruginosa) (UniProt P14489); assay: Kcat/Km ratio of Pseudomonas aeruginosa OXA-10 relative to Cephaloridine
[32] = target: Beta-lactamase VIM-2 (Pseudomonas aeruginosa) (UniProt Q9K2N0); assay: Kcat/Km ratio of Pseudomonas aeruginosa VIM-2 relative to Cephaloridine
[33] = target: Beta-lactamase VIM-2 (Pseudomonas aeruginosa) (UniProt Q9K2N0); assay: Activity of Pseudomonas aeruginosa VIM-2 relative to Cephaloridine

Row | Compound | Km (Klebsiella oxytoca [1]) | kcat (Klebsiella oxytoca [1]) | Km (Klebsiella pneumoniae) | kcat (Klebsiella pneumoniae) | kcat/Km (Klebsiella oxytoca [2]) | kcat/Km (Escherichia coli [3]) | Activity [5] | Activity (Klebsiella oxytoca [7]) | Activity (Escherichia coli [8]) | Activity [9] | Activity [10] | Activity [12] | Activity [15] | Activity [16] | Activity (Klebsiella oxytoca [20]) | Activity (Escherichia coli [21]) | Activity [22] | Activity [23] | Activity [25] | Activity [27] | other results
1 | C[C@@H](O)[C@H]1C(=O)N2C(C(=O)O)=C(S[C@@H]3CN[C@H](C(=O)N(C)C)C3)[C@H](C)[C@H]12 | 90 µM | 0.0096 s⁻¹ | 8.8 µM | 0.00039 s⁻¹ | 110 M⁻¹ s⁻¹ | 44 M⁻¹ s⁻¹ | 0.00041% | 0.002% | 0.0011% | 1.1e-05% | < 0.0063% | < 0.031% | 9.6% | 0.029% | 0.0024% | 0.0079% | 0.058% | < 1.6% | 37% | 31% | Activity [4]: 2.3e-05%; Activity [6]: 0.0022%; Activity [11]: 1.2e-05%; Activity [13]: 0.92%; Activity [14]: 0.27%; Activity [17]: 0.00083%; Activity [18]: 0.015%; Activity [19]: 0.0078%; Activity [24]: 0.00042%; Activity [26]: 18%; Activity [28]: 14.9%
2 | O=C(Cc1cccs1)N[C@@H]1C(=O)N2C(C(=O)[O-])=C(C[n+]3ccccc3)CS[C@H]12 | 110 µM | 490 s⁻¹ | 66 µM | 37 s⁻¹ | 4.5e+06 M⁻¹ s⁻¹ | 560000 M⁻¹ s⁻¹ | – | – | – | – | – | – | – | – | – | – | – | – | – | – | –
3 | CC(C)(O/N=C(\C(=O)N[C@@H]1C(=O)N2C(C(=O)[O-])=C(C[n+]3ccccc3)CS[C@H]12)c1csc(N)n1)C(=O)O | 140 µM | 0.013 s⁻¹ | 130 µM | 95 s⁻¹ | 93 M⁻¹ s⁻¹ | 730000 M⁻¹ s⁻¹ | 0.0024% | 0.0027% | 260% | – | – | < 0.059% | 14% | < 0.00093% | 0.0021% | 130% | 0.033% | < 0.48% | 0.22% | 5.7% | Activity [13]: 0.097%; Activity [18]: 0.00077%
4 | Beta-lactamase VIM-2 (Pseudomonas aeruginosa) (from UniProt Q9K2N0) | – | – | – | – | – | – | – | – | – | – | – | – | – | – | – | – | – | – | – | – | Km [29]: 83 µM; kcat [29]: 2.4 s⁻¹; kcat/Km [30]: 29000 M⁻¹ s⁻¹
5 | CC1(C)S[C@@H]2[C@H](NC(=O)Cc3ccccc3)C(=O)N2[C@H]1C(=O)O | 40 µM | 800 s⁻¹ | 5 µM | 76 s⁻¹ | 2e+07 M⁻¹ s⁻¹ | 1.5e+07 M⁻¹ s⁻¹ | – | 160% | 210% | 3.1% | 46% | 540% | 520% | 120% | 440% | 2700% | 420% | 1% | 260% | 19% | Activity [13]: 15%; Activity [31]: 14000%; Activity [28]: 12000%
6 | C[C@@H](O)[C@H]1C(=O)N2C(C(=O)O)=C(SCCNC=N)C[C@H]12 | 51 µM | 0.091 s⁻¹ | 14 µM | 0.0024 s⁻¹ | 1800 M⁻¹ s⁻¹ | 170 M⁻¹ s⁻¹ | 0.013% | 0.019% | 0.0065% | 0.0044% | < 0.031% | < 0.088% | 70% | 0.2% | 0.04% | 0.03% | – | < 7% | 45% | 45% | Activity [4]: 0.00097%; Activity [6]: 0.09%; Activity [11]: 0.00048%; Activity [13]: 7.9%; Activity [14]: 31%; Activity [17]: 0.072%; Activity [18]: 0.092%; Activity [19]: 0.029%; Activity [24]: 0.0066%; Activity [26]: 83%; Activity [28]: 14200%
7 | C[C@@H](O)[C@H]1C(=O)N2C(C(=O)O)=C(S[C@@H]3CN[C@H](CNS(N)(=O)=O)C3)[C@H](C)[C@H]12 | 45 µM | 0.0068 s⁻¹ | 8 µM | 0.00037 s⁻¹ | 150 M⁻¹ s⁻¹ | 46 M⁻¹ s⁻¹ | 0.00073% | – | 0.001% | 1e-05% | < 0.0063% | < 0.046% | 41% | 0.044% | 0.0033% | 0.0082% | 0.67% | < 1.2% | 45% | 28% | Activity [4]: 2.1e-05%; Activity [6]: 0.00095%; Activity [11]: 1.7e-05%; Activity [14]: 0.21%; Activity [17]: 0.0022%; Activity [18]: 0.027%; Activity [19]: 0.0051%; Activity [24]: 0.00059%; Activity [26]: 10%; Activity [32]: 34%; Activity [28]: 31%; Activity [33]: 2%
8 | O=C(Cc1cccs1)N[C@@H]1C(=O)N2C(C(=O)O)=C(/C=C/c3ccc([N+](=O)[O-])cc3[N+](=O)[O-])CS[C@H]12 | – | – | – | – | – | – | – | – | – | 240% | 160% | – | – | – | – | – | 1800% | – | – | – | –

Reference: ChEMBL document CHEMBL1212772
